SMILES strings stand for the structures. Values joined by “and” are separate entries in the source; they are usually repeats but may differ in a detail not shown here. Equal values may be shown once.

Series [1] concerns the target T1, estrone sulfatase (Rattus norvegicus, UniProt P15589).
T1 construct: uteri were thawed, weighed and homogenized; from tissue; host or cells: uterus of animals dosed orally (ex vivo homogenate supernatant)
T1 sequence (P15589 20-577): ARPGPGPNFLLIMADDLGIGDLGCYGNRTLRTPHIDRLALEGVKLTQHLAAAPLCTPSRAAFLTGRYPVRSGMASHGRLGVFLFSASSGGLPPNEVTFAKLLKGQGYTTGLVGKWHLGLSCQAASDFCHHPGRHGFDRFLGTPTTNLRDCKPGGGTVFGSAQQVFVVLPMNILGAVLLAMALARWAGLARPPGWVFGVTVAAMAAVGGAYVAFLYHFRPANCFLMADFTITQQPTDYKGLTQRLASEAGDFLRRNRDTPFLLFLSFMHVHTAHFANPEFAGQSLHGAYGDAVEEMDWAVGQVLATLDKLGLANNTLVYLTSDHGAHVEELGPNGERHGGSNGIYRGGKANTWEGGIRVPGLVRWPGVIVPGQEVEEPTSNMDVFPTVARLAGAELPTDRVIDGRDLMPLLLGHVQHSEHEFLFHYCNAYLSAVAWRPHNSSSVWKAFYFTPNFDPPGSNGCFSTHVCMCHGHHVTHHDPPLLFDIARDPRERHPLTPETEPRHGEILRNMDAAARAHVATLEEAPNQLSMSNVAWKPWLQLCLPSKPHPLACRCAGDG
In words: Estrone sulfatase activity in the uterus of treated rats. Format: in vivo. The method, then: (§1) In this study, a last administration was performed 24 hours before the necropsy for E1S and E2 serum levels assays. The uteri were removed, freed of adjacent tissue, wet weighed and immediately deep frozen until the determination of sulfatase activity.
Estrone sulfatase activity was measured according to the method described by Purohit et al., with slight modifications. Briefly, uteri were thawed, weighed and homogenized. Aliquots of the supernatant were treated with dextran-coated charcoal and assayed for sulfatase. E1S activity was assessed after 30 min of incubation with 5 nM of ^3H-E1S and 20 μM of unlabelled E1S as substrate. Radioactivity was measured by LSC.
Estrone sulfatase activity was expressed as pmol/h/mg protein and reported as percentage of inhibition versus E1S.

A short description of series [2]: Serum estrogen levels (E1S and E2) in treated rats. Format: in vivo, rat. Conditions: 24 h after last administration. The protocol:
as §1
E1S and E2 levels were determined according to the supplier's standard method (DSL, Webster, Tex., USA).

In series [3] the test system is ovariectomized Wistar female rats. In words: Antiuterotrophic/antisulfatase activity: inhibition of E1S stimulated uterus weight. It counts as in vivo, rat. The following applies: for % inhibition of the E1S induced stimulation (uterus weight): ovariectomized rats, E1S 50 μg/kg/day s.c., compound oral 1 mg/kg/day for 4 days. The method, then: A short model, derived from Purohit's method, was developed for the evaluation in vivo of nonestrogenic steroid sulfatase inhibitors.
Wistar female rats were ovariectomized and left to rest for 4 weeks. Prior to treatment, the absence of cyclicity was checked by vaginal smears.
Animals were supplemented with estrone sulfate (E1S) at 50 μg/kg/day s.c., alone or combined with oral administration of potential sulfatase inhibitors, at 1 mg/kg/day for 4 days. The uteri were removed, freed of adjacent tissue and wet weighed.
The results are expressed as % of inhibition of the E1S induced stimulation.
The activity of Ex 55 on E1S stimulated uterus weight was evaluated in relation to the standard inhibitor 6,6,7 COUMATE from 0.03 mg/kg/day to 1 mg/kg/day p.o.
as §1

The test system of another series is prepubescent female rats. Put plainly: Residual estrogenic activity in vivo (uterotrophic assay). The following applies: prepubescent female rats, oral, 1 mg/rat/day for 3 days.
The next series deals with T2, steroid sulfatase (Homo sapiens, UniProt P08842).
T2 construct: from tissue; host or cells: MCF-7 xenograft tumour removed from athymic nude mice
T2 sequence (P08842 22-583): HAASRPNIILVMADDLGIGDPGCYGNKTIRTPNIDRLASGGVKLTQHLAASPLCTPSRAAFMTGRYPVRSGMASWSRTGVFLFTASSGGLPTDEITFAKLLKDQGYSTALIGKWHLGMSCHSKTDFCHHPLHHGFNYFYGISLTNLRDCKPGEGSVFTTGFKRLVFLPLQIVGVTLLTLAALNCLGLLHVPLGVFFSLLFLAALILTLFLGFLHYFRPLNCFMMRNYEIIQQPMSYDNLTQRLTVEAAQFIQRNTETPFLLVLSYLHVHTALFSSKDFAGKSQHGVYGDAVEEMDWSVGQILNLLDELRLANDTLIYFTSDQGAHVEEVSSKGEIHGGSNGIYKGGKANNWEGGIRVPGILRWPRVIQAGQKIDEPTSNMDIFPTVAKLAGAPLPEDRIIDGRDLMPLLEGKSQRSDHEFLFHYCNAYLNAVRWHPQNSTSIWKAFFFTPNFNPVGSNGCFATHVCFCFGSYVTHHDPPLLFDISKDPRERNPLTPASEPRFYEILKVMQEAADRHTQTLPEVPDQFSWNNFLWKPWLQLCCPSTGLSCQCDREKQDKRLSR
Put plainly: Xenograft steroid sulfatase activity. It counts as in vivo, mouse. The following applies: oral 0.1 mg/kg/day for 6 weeks. The protocol: (§2) MCF-7 cells, derived from human breast adenocarcinoma, were injected subcutaneously in ovariectomized athymic nude mice supplemented with estrone sulfate (pellets 0.5 mg/90 day release). Xenograft volumes were determined once weekly. When tumor volumes reached a significant increase, 6,6,7 COUMATE and Ex 55 were orally administered at 0.1 mg/kg/day for 6 weeks.
(§3) Xenografts were measured, removed, weighed, and deep frozen until the determination of steroid sulfatase activity.

The test system of the next series is MCF-7 cells. Put plainly: Hormono-dependent induced MCF-7 xenografts: volume and weight. It counts as in vivo, mice. Conditions: oral 0.1 mg/kg/day for 6 weeks. The protocol:
as §2, §3

Series [4] has as its target T3, estrone sulfatase (Homo sapiens, UniProt P08842).
T3 sequence (P08842 22-583): T2 sequence (P08842 22-583)
In words: Estrone sulfatase whole-cell assay on MCF-7 cells. It counts as cell-based. More on the design: Whole-cell assays were performed as originally described by Duncan et al. (Cancer Res., 1993, 53: 298-303) on intact MCF-7 cell monolayers; endogenous in cells; host or cells: MCF-7 (human breast adenocarcinoma), intact monolayers. The following applies: 20 h treatment, 3H-E1S, read-out: IC50 (nM) ± S.E.M., inhibition of estrone sulfatase. The method, then: (§4) Two in vitro models on whole cells were used. […] Moreover, these cells were used in the in vivo model of hormono-dependent induced xenografts.
(§5) Estrone Sulfatase Assay on Cells
(§6) Whole-cell assays were performed as originally described by Duncan et al. (Cancer Res., 1993, 53: 298-303) on intact MCF-7 cell monolayers. Assays were carried out with cells in logarithmic growth phase, on 96-well (JEG-3) or 24-well (MCF-7) microplates. Twenty-four hours (JEG-3) or 72 h (MCF-7) before studies, cells were seeded in decomplemented fetal calf serum (dFCS) supplemented medium. Then, the seeding medium was removed and the cells were rinsed with PBS to eliminate any trace of dFCS. Then, ^3H-E1S was added, followed by test compounds ranging from 10^−12 M to 10^−5 M. After 4 h (JEG-3) or 20 h (MCF-7) of treatment, the medium was transferred into either 96-deep-well microplates (JEG-3) or plastic tubes (MCF-7) and centrifuged at 200×g for 10 min to pellet cells before toluene extraction. A fraction of medium was used for toluene extraction in order to separate conjugated substrate and non-conjugated products. The radioactivity in the toluene phase was measured by liquid scintillation counting (LSC). Finally, estrone sulfatase activity was expressed in pmoles of ^3H-E1+^3H-E2 formed per 4 or 20 hours and per μg DNA and estrone sulfatase inhibition in percentage of control activity without inhibitor.

The target of series [5] is T3, estrone sulfatase. Put plainly: Estrone sulfatase whole-cell assay on JEG-3 cells. Format: cell-based. More on the design: The JEG-3 cell line, derived from a human placental choriocarcinoma, is spontaneously very rich in human estrone sulfatase; endogenous in cells; host or cells: JEG-3 (human placental choriocarcinoma), intact cells. The following applies: 4 h treatment, 3H-E1S, read-out: IC50 (nM) ± S.E.M., inhibition of estrone sulfatase. The method, then: as §4, §5, §6

The mark [6] stands for this setting: MCF-7 xenografts, nude mice with E1S pellet.

Method for prepubescent female rats: These compounds were checked for residual estrogenic activity in vivo in the classical uterotrophic assay after 3-day administration by oral route in prepubescent female rats.
Prepubescent female rats were orally treated at 1 mg/rat/day for 3 days. On the day following the last treatment, uteri were removed and wet weight were recorded.
The results are expressed as % of stimulation of uterus weight in comparison with controls.

Turning to `NS(=O)(=O)Oc1ccc2c3c(c(=O)oc2c1)CCCCC3` [6,6,7-COUMATE, reference compound], the “Estrone sulfatase activity in the uterus, percentage of inhibition versus E1S” value was 36% at estrone sulfatase [1] (0.03 mg/kg/day p.o.), 78% at estrone sulfatase [1] (0.1 mg/kg/day p.o.), 96% on estrone sulfatase [1] (0.3 mg/kg/day p.o.) and 97% at estrone sulfatase [1] (1 mg/kg/day p.o.). Also, the “E1S levels (serum)” value in series [2] (0.03 mg/kg/day p.o.) came out at 24 ± 3.1 ng/mL; in [2] (0.1 mg/kg/day p.o.) it was 26 ± 2.6 ng/mL; in series [2] (0.3 mg/kg/day p.o.) it was 59 ± 6.4 ng/mL; in [2] (1 mg/kg/day p.o.), 80 ± 5.7 ng/mL. The “E2 levels (serum)” value in [2] (0.03 mg/kg/day p.o.) was determined as 33 ± 5.8 pg/mL; in series [2] (0.1 mg/kg/day p.o.) it was 28 ± 2.5 pg/mL; in series [2] (0.3 mg/kg/day p.o.), 18 ± 1.1 pg/mL; in series [2] (1 mg/kg/day p.o.), 16 ± 1.5 pg/mL. Moreover, the “Inhibition of E1S stimulated uterus weight” value in series [3] (0.03 mg/kg/day p.o.) was found to be 0%; in [3] (0.1 mg/kg/day p.o.) it was 13%; in series [3] (0.3 mg/kg/day p.o.), 52%; in series [3] (1 mg/kg/day p.o.) it was 84%. In series [3], the “% inhibition of the E1S induced stimulation (uterus weight)” value was 86%. Moreover, the “% stimulation of uterus weight in comparison with controls” value in the series on prepubescent female rats turned out to be 3%. In addition, the “Xenograft steroid sulfatase activity” value on steroid sulfatase (MCF-7 xenografts) is 540 ± 54 pmol/h/mg protein. The inhibition at 0.1 mg/kg/day at steroid sulfatase (read-out: inhibition of intratumoral steroid sulfatase activity) worked out at 67%. In the series on MCF-7 cells (setting [6]), the “Xenograft volume after 6 week treatment” value is recorded as 1854 ± 243 mm^3. The “Xenograft weight after 6 week treatment” value in the series on MCF-7 cells (setting [6]) is 1467 ± 191 mg. Moreover, in the series with MCF-7 cells, the “inhibition of the E1S induced stimulation (xenograft volume)” value is recorded as “did not inhibit”. For the same compound, the “inhibition of xenograft weight” value in the series with MCF-7 cells is “did not inhibit”.

`NS(=O)(=O)Oc1ccc2c(c1)S(=O)(=O)C(CC1CCCCC1)=C2` [Ex 54, Sulfamic acid, 2-cyclohexylmethyl-benzothiophene-6-yl-1,1-dioxide ester] showed a melting point of 132 °C. Moreover, on estrone sulfatase [4], the IC50 turned out to be 0.1 ± 0.03 nM. Besides, on estrone sulfatase [5], the IC50 was ~10 nM and 10 nM. In [3], the “% inhibition of the E1S induced stimulation (uterus weight)” value worked out at 49%. Further, the “% stimulation of uterus weight in comparison with controls” value with prepubescent female rats worked out at 6%.

The values above are taken from patent US7476691B2, “Sulfamate benzothiophene derivatives as steroid sulfatase inhibitors” (Laboratoire Theramex, priority 2003, dated 2009).
